# Patent publication US4983328A, “N-(4-(3-aminopropyl)aminobutyl)-2-(ω-gua nidino-fatty-acid-amido(-2-substituted-ethanamide, salt thereof, and process for preparation thereof” (Bristol-Myers Company, priority 1981, dated 1991)
# Where two headings read alike, the source gives them in different places.
# Legend:
# [1] = chemical stability: retention (%) after heating at 60° C. for 4 hours, by HPLC; assay type: physicochemical
# Method: The chemical stability of the present compound was evaluated by determining the retention (%) after heating at 60° C. for 4 hours. In Table 5 are shown the test results together with those for spergualin as reference. The retention was determined by means of high performance liquid chromatography (HPLC). The column was packed with Nucleosil® 5C18. The solvent used for spergualin was a mixture (6:94) of acetonitrile -0.01M sodium pentanesulfonate +0.01M Na2 HPO4 (pH 3), while that for the compounds of this invention was a mixture of acetonitrile -0.005M sodium pentanesulfonate ±0.01M Na2 HPO4 (pH 3). The mixture ratio in the latter case was varied for each particular compound. For instance, a mixing ratio of 10:90 was used for Compound No. 9, while that of 7:93 for Compound No. 22.
# [2] = cumulative toxicity in mice (maximum tolerated dose, once a day for 6 consecutive days); settings: mouse, in vivo, ip, i.p. once a day for 6 consecutive days, total dose, read-out: Maximum Tolerated Dose (total dose not causing death)
# Procedure, shortened: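 Mice dosed intraperitoneally once a day for 6 consecutive days with a fixed amount per unit body weight. The value is the maximum total dose not causing death.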
# [3] = system: mouse leukemia L-1210 cells; experiment: growth inhibitory activity to cancer cells in vitro (L-1210, 48 hours); assay type: cell-based; settings: for inhibition at 1.25 µg/mL: L1210, 1.25 mcg/ml; for inhibition at 2.5 µg/mL: L1210, 2.5 mcg/ml; for inhibition at 5 µg/mL: L1210, 5 mcg/ml; for inhibition at 10 µg/mL: L1210, 10 mcg/ml; for inhibition at 20 µg/mL: L1210, 20 mcg/ml; for inhibition at 40 µg/mL: L1210, 40 mcg/ml; for IC50: L1210, L-1210 cells, read-out: 50% inhibitory concentration
# Procedure, shortened: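 L-1210 cells from DBA/2 mouse ascites, cultured at 5×10^4 cells per well in RPMI 1640 with 10% FCS and 5 μM 2-mercaptoethanol, 37° C, CO2, for 48 h with compound. Cell counts by Coulter Counter gave % inhibition (1−T/C)×100, and IC50 was derived across concentrations.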
# [4] = acute toxicity in mice (single intraperitoneal administration); settings: mouse, in vivo, ip, read-out: LD50 (median lethal dose on single administration)
# Method: In Table 8 median lethal doses (LD50) of typical compounds of this invention are shown, measured in mice upon single intraperitoneal administration, as well as maximum tolerated doses in terms of total dose when a fixed amount per unit body weight was administered intraperitoneally to mice once a day for 6 consecutive days.
# *Median lethal dose on single administration.
# mouse leukemia L-1210 = experiment: therapeutic effect on implanted cancer in mice (L-1210, survival over 30 days); assay type: in vivo, mouse (BDF1); settings: L1210, ip, 720 h, 6 days; for responders at 6.25 mg/kg / response vs control in vivo at 6.25 mg/kg: 6.25 mg/kg/day i.p.; for responders at 12.5 mg/kg / response vs control in vivo at 12.5 mg/kg: 12.5 mg/kg/day i.p.; for responders at 25 mg/kg / response vs control in vivo at 25 mg/kg: 25 mg/kg/day i.p.; for responders at 50 mg/kg / response vs control in vivo at 50 mg/kg: 50 mg/kg/day i.p.
# Procedure, shortened: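 In vivo antileukemic activity was assessed using 5-week-old male BDF1 mice implanted i.p. with 10^5 L-1210 cells. Compound in physiological saline was given by daily intraperitoneal injection over 6 days beginning on the day of implantation; survival was monitored over a 30-day observation period, comparing treated with control groups.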
# [5] = read-out: Growth inhibition (%), (1-T/C) × 100
# [6] = read-out: Number of mice survived for 30 days (converted)
# [7] = read-out: Prolongation of survival period (%), T/C × 100
structure (smiles),measurement,setting,value
"N=C(N)NCCCCCCC(=O)NC(OCc1ccccc1)C(=O)NCCCCNCCCN (stereo not drawn) [Compound 15, N-[4-(3-aminopropyl)aminobutyl]-2-(7-guanidinoheptanamido)-2-benzyloxyethanamide]",remaining at 4 h,"[1]; pH 2, pH 2",76.5%
same,remaining at 4 h,"[1]; pH 3, pH 3",91.4%
same,remaining at 4 h,"[1]; pH 4, pH 4",100%
same,remaining at 4 h,"[1]; pH 6, pH 6",100%
same,remaining at 4 h,"[1]; pH 8, pH 8",100%
same,remaining at 4 h,"[1]; pH 9, pH 9",99%
same,remaining at 4 h,"[1]; pH 10, pH 10",96.2%
same,MTD,[2],> 75 mg/kg
same,inhibition at 1.25 µg/mL,[3]; [5],27.1%
same,inhibition at 2.5 µg/mL,[3]; [5],39%
same,inhibition at 5 µg/mL,[3]; [5],71%
same,inhibition at 10 µg/mL,[3]; [5],94.5%
same,inhibition at 20 µg/mL,[3]; [5],97.7%
same,inhibition at 40 µg/mL,[3]; [5],100%
same,IC50,[3],3.1 µg/mL
same,LD50,"[4]; mice, single i.p.",12.5 to 25 mg/kg
"N=C(N)NCCCC[C@H](O)CC(=O)NC(OCc1ccccc1)C(=O)NCCCCNCCCN (stereo partly drawn) [Compound 26, N-[4-(3-aminopropyl)aminobutyl]-2-(7-guanidino-3-hydroxyheptanamido)-2-benzyloxyethanamide]",remaining at 4 h,"[1]; pH 2, pH 2",77.2%
same,remaining at 4 h,"[1]; pH 4, pH 4",100%
same,remaining at 4 h,"[1]; pH 5, pH 5",100%
same,remaining at 4 h,"[1]; pH 6, pH 6",100%
same,remaining at 4 h,"[1]; pH 7, pH 7",100%
same,remaining at 4 h,"[1]; pH 8, pH 8",100%
same,remaining at 4 h,"[1]; pH 9, pH 9",95.9%
same,remaining at 4 h,"[1]; pH 10, pH 10",94.5%
same,MTD,[2],> 75 mg/kg
same,inhibition at 2.5 µg/mL,[3]; [5],54.2%
same,inhibition at 5 µg/mL,[3]; [5],79%
same,inhibition at 10 µg/mL,[3]; [5],90.2%
same,inhibition at 20 µg/mL,[3]; [5],96.6%
same,inhibition at 40 µg/mL,[3]; [5],97.3%
same,IC50,[3],2.2 µg/mL
same,LD50,[4],12.5 to 25 mg/kg
"N=C(N)NCCCC[C@H](O)CC(=O)NC(OCCO)C(=O)NCCCCNCCCN (stereo partly drawn) [Compound 25, N-[4-(3-aminopropyl)aminobutyl]-2-(7-guanidino-3-hydroxyheptanamido)-2-(2-hydroxy)ethoxyethanamide]",responders at 6.25 mg/kg,mouse leukemia L-1210; [6],0%
same,response vs control in vivo at 6.25 mg/kg,mouse leukemia L-1210; [7],107%
same,responders at 12.5 mg/kg,mouse leukemia L-1210; [6],0%
same,response vs control in vivo at 12.5 mg/kg,mouse leukemia L-1210; [7],193%
same,responders at 25 mg/kg,mouse leukemia L-1210; [6],0%
same,response vs control in vivo at 25 mg/kg,mouse leukemia L-1210; [7],229%
same,responders at 50 mg/kg,mouse leukemia L-1210; [6],100%
same,response vs control in vivo at 50 mg/kg,mouse leukemia L-1210; [7],> 429%
same,remaining at 4 h,"[1]; pH 2, pH 2",68.9%
same,remaining at 4 h,"[1]; pH 4, pH 4",100%
same,remaining at 4 h,"[1]; pH 5, pH 5",100%
same,remaining at 4 h,"[1]; pH 6, pH 6",100%
same,remaining at 4 h,"[1]; pH 7, pH 7",100%
same,remaining at 4 h,"[1]; pH 8, pH 8",100%
same,remaining at 4 h,"[1]; pH 9, pH 9",97.7%
same,remaining at 4 h,"[1]; pH 10, pH 10",95.5%
same,MTD,[2],> 300 mg/kg
same,inhibition at 2.5 µg/mL,[3]; [5],9%
same,inhibition at 5 µg/mL,[3]; [5],20%
same,inhibition at 10 µg/mL,[3]; [5],42%
same,inhibition at 20 µg/mL,[3]; [5],63.5%
same,inhibition at 40 µg/mL,[3]; [5],74.7%
same,IC50,[3],7.2 µg/mL
same,LD50,[4],> 50 mg/kg
"N=C(N)NCCCCCCC(=O)NC(OCCO)C(=O)NCCCCNCCCN (stereo not drawn) [Compound 14, N-[4-(3-aminopropyl)aminobutyl]-2-(7-guanidinoheptanamido)-2-(2-hydroxy)ethoxyethanamide]",remaining at 4 h,"[1]; pH 2, pH 2",71.8%
same,remaining at 4 h,"[1]; pH 3, pH 3",90.6%
same,remaining at 4 h,"[1]; pH 4, pH 4",100%
same,remaining at 4 h,"[1]; pH 6, pH 6",100%
same,remaining at 4 h,"[1]; pH 8, pH 8",100%
same,remaining at 4 h,"[1]; pH 9, pH 9",97.5%
same,remaining at 4 h,"[1]; pH 10, pH 10",97.3%
same,MTD,[2],> 150 mg/kg
same,inhibition at 5 µg/mL,[3]; [5],22.3%
same,inhibition at 10 µg/mL,[3]; [5],24.6%
same,inhibition at 20 µg/mL,[3]; [5],29.9%
same,inhibition at 40 µg/mL,[3]; [5],42.7%
same,inhibition at 80 µg/mL,"[3]; L1210, 80 mcg/ml, read-out: Growth inhibition (%), (1-T/C) × 100",58.6%
same,IC50,[3],52 µg/mL
same,LD50,"[4]; mice, single i.p.",25 to 50 mg/kg
"CCCCOC(NC(=O)C[C@@H](O)CCCCNC(=N)N)C(=O)NCCCCNCCCN (stereo partly drawn) [Compound 24, N-[4-(3-aminopropyl)aminobutyl]-2-(7-guanidino-3-hydroxyheptanamido)-2-butoxyethanamide]",remaining at 4 h,"[1]; pH 2, pH 2",76.3%
same,remaining at 4 h,"[1]; pH 4, pH 4",100%
same,remaining at 4 h,"[1]; pH 5, pH 5",100%
same,remaining at 4 h,"[1]; pH 6, pH 6",100%
same,remaining at 4 h,"[1]; pH 7, pH 7",100%
same,remaining at 4 h,"[1]; pH 8, pH 8",100%
same,remaining at 4 h,"[1]; pH 9, pH 9",97.1%
same,remaining at 4 h,"[1]; pH 10, pH 10",94.8%
same,MTD,[2],> 300 mg/kg
same,inhibition at 2.5 µg/mL,[3]; [5],47.3%
same,inhibition at 5 µg/mL,[3]; [5],75.6%
same,inhibition at 10 µg/mL,[3]; [5],89.5%
same,inhibition at 20 µg/mL,[3]; [5],95%
same,inhibition at 40 µg/mL,[3]; [5],97.2%
same,IC50,[3],2.6 µg/mL
same,LD50,"[4]; mice, single i.p.",> 50 mg/kg
"N=C(N)NCCCCCCC(=O)NC(O)C(=O)NCCCCNCCCN (stereo not drawn) [Compound 4, N-[4-(3-aminopropyl)aminobutyl]-2-(7-guanidinoheptanamido)-2-hydroxyethanamide]",responders at 0.2 mg/kg,"mouse leukemia L-1210; 0.20 mg/kg/day i.p., read-out: Number of mice survived for 30 days (converted)",0%
same,response vs control in vivo at 0.2 mg/kg,"mouse leukemia L-1210; 0.20 mg/kg/day i.p., read-out: Prolongation of survival period (%), T/C × 100",197%
same,responders at 0.39 mg/kg,"mouse leukemia L-1210; 0.39 mg/kg/day i.p., read-out: Number of mice survived for 30 days (converted)",75%
same,response vs control in vivo at 0.39 mg/kg,"mouse leukemia L-1210; 0.39 mg/kg/day i.p., read-out: Prolongation of survival period (%), T/C × 100",> 390%
same,responders at 0.78 mg/kg,"mouse leukemia L-1210; 0.78 mg/kg/day i.p., read-out: Number of mice survived for 30 days (converted)",100%
same,response vs control in vivo at 0.78 mg/kg,"mouse leukemia L-1210; 0.78 mg/kg/day i.p., read-out: Prolongation of survival period (%), T/C × 100",> 429%
same,responders at 1.56 mg/kg,"mouse leukemia L-1210; 1.56 mg/kg/day i.p., read-out: Number of mice survived for 30 days (converted)",100%
same,response vs control in vivo at 1.56 mg/kg,"mouse leukemia L-1210; 1.56 mg/kg/day i.p., read-out: Prolongation of survival period (%), T/C × 100",> 429%
same,responders at 3.13 mg/kg,"mouse leukemia L-1210; 3.13 mg/kg/day i.p., read-out: Number of mice survived for 30 days (converted)",50%
same,response vs control in vivo at 3.13 mg/kg,"mouse leukemia L-1210; 3.13 mg/kg/day i.p., read-out: Prolongation of survival period (%), T/C × 100",> 364%
same,responders at 6.25 mg/kg,mouse leukemia L-1210; [6],25%
same,response vs control in vivo at 6.25 mg/kg,mouse leukemia L-1210; [7],> 369%
same,responders at 12.5 mg/kg,mouse leukemia L-1210; [6],50%
same,response vs control in vivo at 12.5 mg/kg,mouse leukemia L-1210; [7],> 357%
same,responders at 25 mg/kg,mouse leukemia L-1210; [6],0%
same,response vs control in vivo at 25 mg/kg,mouse leukemia L-1210; [7],336%
same,responders at 50 mg/kg,mouse leukemia L-1210; [6],0%
same,response vs control in vivo at 50 mg/kg,mouse leukemia L-1210; [7],0%
same,MTD,[2],> 150 mg/kg
same,inhibition at 1.25 µg/mL,[3]; [5],20%
same,inhibition at 2.5 µg/mL,[3]; [5],27.5%
same,inhibition at 5 µg/mL,[3]; [5],29.9%
same,inhibition at 10 µg/mL,[3]; [5],58.4%
same,inhibition at 20 µg/mL,[3]; [5],75.5%
same,inhibition at 40 µg/mL,[3]; [5],78.7%
same,IC50,[3],8.1 µg/mL
same,LD50,"[4]; mice, single i.p.",25 to 50 mg/kg
